# Measured values taken from ChEMBL document CHEMBL1201862, “PubChem BioAssay data set” (2004).
# The source made the active and inactive calls. For most assays here, no stated cut-off is given here; in the data, actives have a measured EC50 and inactives only a lower limit.
# Columns and labels:
# [1] = HEp-2 cell cytotoxicity, dose response, cytotoxicity control for RSV inhibitor project, HTS (AID 2410); type: functional; settings: human respiratory syncytial virus
# Cytochrome P450 3A4 = Cytochrome P450 3A4 (Homo sapiens, UniProt P08684);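 further: CYP3A4 tested as one member of a cytochrome P450 panel screen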
# [2] = biological target: T1, Heat shock factor protein 1 (Mus musculus, UniProt P38532); assay: inhibition of MG132-induced HSE-luciferase signal, confirmation, cell-based, NIH3T3, luminescence, dose retest (AID 2382); type: functional;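 further: NIH3T3 fibroblasts with HSF1-driven luciferase reporter stressed by proteasome inhibitor MG132; luminescence from HSF1-driven luciferase expression after 8 hours of MG132 stress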
# T1 sequence (P38532 whole entry): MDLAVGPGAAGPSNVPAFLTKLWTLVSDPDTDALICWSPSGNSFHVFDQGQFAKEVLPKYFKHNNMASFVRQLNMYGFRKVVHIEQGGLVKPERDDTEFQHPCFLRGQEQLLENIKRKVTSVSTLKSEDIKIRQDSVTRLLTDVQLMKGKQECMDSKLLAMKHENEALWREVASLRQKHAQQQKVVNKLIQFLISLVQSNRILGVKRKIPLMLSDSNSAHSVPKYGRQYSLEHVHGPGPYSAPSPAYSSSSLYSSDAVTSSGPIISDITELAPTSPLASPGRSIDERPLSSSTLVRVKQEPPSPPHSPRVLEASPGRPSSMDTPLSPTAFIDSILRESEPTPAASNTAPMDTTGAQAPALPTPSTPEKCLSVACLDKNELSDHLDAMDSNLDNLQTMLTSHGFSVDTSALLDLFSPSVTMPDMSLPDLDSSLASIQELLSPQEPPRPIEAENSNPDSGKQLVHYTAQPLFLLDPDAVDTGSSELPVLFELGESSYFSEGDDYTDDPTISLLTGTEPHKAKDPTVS
# [3] = biological target: T2, Rac GTPase-activating protein 1 (Homo sapiens, UniProt Q9H0H5); assay: MgcRacGAP GTPase-activating activity inhibitors, confirmation, biochemical, ADP Hunter fluorescence, primary and confirmatory (AID 624330); type: functional
# T2 sequence (Q9H0H5 whole entry): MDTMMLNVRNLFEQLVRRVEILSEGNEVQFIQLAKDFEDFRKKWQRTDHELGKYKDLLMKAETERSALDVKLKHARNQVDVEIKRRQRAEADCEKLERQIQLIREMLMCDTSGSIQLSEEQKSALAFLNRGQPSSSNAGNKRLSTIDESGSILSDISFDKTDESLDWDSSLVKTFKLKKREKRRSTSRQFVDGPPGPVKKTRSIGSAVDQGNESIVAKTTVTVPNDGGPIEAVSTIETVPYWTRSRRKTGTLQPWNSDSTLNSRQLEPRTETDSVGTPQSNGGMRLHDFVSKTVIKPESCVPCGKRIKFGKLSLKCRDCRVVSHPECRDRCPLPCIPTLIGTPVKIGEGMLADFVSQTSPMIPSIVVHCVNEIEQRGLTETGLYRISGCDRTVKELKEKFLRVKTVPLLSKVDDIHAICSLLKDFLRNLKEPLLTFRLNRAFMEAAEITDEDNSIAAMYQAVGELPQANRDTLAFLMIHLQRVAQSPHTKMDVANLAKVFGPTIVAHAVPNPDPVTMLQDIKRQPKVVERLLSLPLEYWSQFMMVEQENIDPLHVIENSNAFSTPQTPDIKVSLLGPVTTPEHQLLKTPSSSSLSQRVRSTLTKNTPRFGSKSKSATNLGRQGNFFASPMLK
# Cytochrome P450 2C9 = Cytochrome P450 2C9 (Homo sapiens, UniProt P11712)
# [4] = cytotoxicity toward NIH3T3 fibroblasts, dose response, counter-screen, cell-based, ATP luminescence, mouse fibroblasts (AID 2010); type: functional;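 further: cells exposed to compound for about 90 hours before reading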
# [5] = inhibitors of intracellular T. cruzi replication, confirmation, NIH3T3 host cells, beta-gal luminescence (AID 2044); type: functional, cell-based;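 further: intracellular parasites grown in NIH/3T3 mouse fibroblasts as host cells; luminescent beta-galactosidase reporter signal from transgenic T. cruzi replicating inside host cells; inhibitors lower the luminescence signal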
# Streptococcus = assay: Group A Streptococcus viability loss, dose response, counter-screen for streptokinase expression inhibitor project, luminescence, BacTiterGlo (AID 1915); type: functional, organism-based;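 further: potency for reduction of bacterial viability or growth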
# [6] = test system: Streptococcus sp. 'group A'; assay: growth inhibition of control SK(-) GAS strain, dose response, counter-screen for streptokinase expression inhibitor project, luminescence, kanamycin, BacTiterGlo, confirmation (AID 1900); type: functional, organism-based
# Sequence of Cytochrome P450 3A4 (P08684 whole entry): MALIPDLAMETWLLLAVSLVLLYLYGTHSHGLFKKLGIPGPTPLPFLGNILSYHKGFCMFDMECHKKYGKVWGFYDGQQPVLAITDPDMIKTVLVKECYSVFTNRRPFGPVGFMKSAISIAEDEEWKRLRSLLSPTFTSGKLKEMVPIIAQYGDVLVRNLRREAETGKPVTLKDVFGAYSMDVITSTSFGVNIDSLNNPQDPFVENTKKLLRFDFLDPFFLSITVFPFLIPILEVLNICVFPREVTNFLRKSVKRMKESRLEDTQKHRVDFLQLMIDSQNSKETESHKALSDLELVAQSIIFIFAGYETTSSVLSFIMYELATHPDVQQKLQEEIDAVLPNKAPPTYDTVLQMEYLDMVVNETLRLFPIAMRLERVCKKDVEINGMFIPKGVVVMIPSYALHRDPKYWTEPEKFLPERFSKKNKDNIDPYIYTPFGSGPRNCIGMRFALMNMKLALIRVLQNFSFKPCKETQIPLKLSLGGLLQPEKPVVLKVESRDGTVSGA
# Sequence of Cytochrome P450 2C9 (P11712 whole entry): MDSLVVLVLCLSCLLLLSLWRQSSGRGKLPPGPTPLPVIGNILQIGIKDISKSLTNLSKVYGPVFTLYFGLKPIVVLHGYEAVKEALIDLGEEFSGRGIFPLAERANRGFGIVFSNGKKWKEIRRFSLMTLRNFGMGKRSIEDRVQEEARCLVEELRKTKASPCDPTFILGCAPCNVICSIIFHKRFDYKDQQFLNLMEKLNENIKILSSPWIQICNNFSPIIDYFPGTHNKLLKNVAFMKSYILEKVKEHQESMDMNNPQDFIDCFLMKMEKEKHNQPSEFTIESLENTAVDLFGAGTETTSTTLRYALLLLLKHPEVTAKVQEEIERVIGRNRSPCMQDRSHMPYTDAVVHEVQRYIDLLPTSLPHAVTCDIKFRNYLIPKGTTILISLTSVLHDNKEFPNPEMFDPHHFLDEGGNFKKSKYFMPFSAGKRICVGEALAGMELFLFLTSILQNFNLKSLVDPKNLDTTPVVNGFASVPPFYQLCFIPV
compound,measurement,setting,value
CCOc1ccc(-c2cn(S(=O)(=O)c3cccc4nsnc34)nc2N)cc1,CC50,[1],> 50 µM (active)
CCOC(=O)CSc1ncc(OC)c(Sc2ccc(Cl)cc2)n1,AC50,Cytochrome P450 3A4,25.1 µM (inconclusive)
COC(=O)c1ccc(N=NNc2ccc(C(=O)OC)cc2)cc1,EC50,[2],> 195 µM (not active)
COc1ccc(CN2CCN(C(C)C(=O)N(C)Cc3cccc(F)c3)CC2)cc1OC (stereo not drawn),IC50,[3],76.2 µM (active)
COc1ccc(NC(=O)C(C)N2CCN(C)CC2)cc1 (stereo not drawn),IC50,[3],78.1 µM (active)
O=C(O)CSc1cc(-c2ccccc2)nc2ccccc12,AC50,Cytochrome P450 2C9,3.16 µM (inconclusive)
O=C(CN1CCCCCC1)NCC1CCCO1 (stereo not drawn),IC50,[3],117 µM (active)
COc1ccc(OCCOCCN2CCc3ccccc3C2)cc1,EC50,[4],> 60 µM (not active)
same,EC50,[5],0.141 µM (active)
O=C(COc1ccccc1)Nc1ccc(N2CCN(C(=O)c3ccco3)CC2)cc1,CC50,[1],23.6 µM (active)
Cc1cc(C(=O)CSc2ccc(F)cc2)cc(C)c1O,CC50,[1],22 µM (active)
COC(=O)c1cc(COc2ccc3oc(C)c(C(=O)OC(C)C)c3c2)c(C)o1,EC50,[2],> 195 µM (not active)
N#C/C(=C\c1c(Cl)cccc1Cl)c1nn(-c2ccccc2)c(-n2cccc2)c1C#N,EC50,[4],> 60 µM (not active)
same,EC50,[5],1.29 µM (active)
COc1cccc(-c2nn(-c3ccccc3)cc2/C=C\C(=O)c2cccs2)c1,CC50,[1],24.3 µM (active)
O=S(=O)(N1CCCCC1)n1nnc2ccccc21,EC50,[2],> 195 µM (not active)
CCOC(=O)c1cn2nc(-c3ccc(OC)cc3)cc2nc1C1CCN(C(=O)OC(C)(C)C)CC1,EC50,[4],> 60 µM (not active)
same,EC50,[5],1.55 µM (active)
Cc1cnc(C(=O)Nc2cccc3cccnc23)cn1,EC50,[5],2.22 µM (active)
CCOC(=O)c1c(CC(C)C)csc1NC=O,AC50,Cytochrome P450 3A4,22.4 µM (inconclusive)
CCn1cc(C(=O)NCCCN2CC(C)CC(C)C2)c(=O)c2cc(S(=O)(=O)N(C)C)ccc21 (stereo not drawn),EC50,[2],> 195 µM (not active)
c1ccc(Cn2nnnc2C(c2cccnc2)N2CCN(c3ccccc3)CC2)cc1 (stereo not drawn),EC50,[4],> 60 µM (not active)
same,EC50,[5],0.534 µM (active)
CC1CC(C)CN(C2CCN(Cc3cccnc3)CC2)C1 (stereo not drawn),IC50,[3],49.6 µM (active)
CC(=O)OC1(c2ccccc2)CCN(C)C2CCCCC21 (stereo not drawn),EC50,[2],> 195 µM (not active)
CCC(=O)c1ccccc1OCCN1CCN(CC)CC1,IC50,[3],88.2 µM (active)
COCCSc1ccccc1C(=O)N1CCCC(C)C1 (stereo not drawn),EC50,Streptococcus,> 150 µM (not active)
same,EC50,[6],> 150 µM (not active)
CCOC(=O)c1[nH]c2cc(OC)c(OC)cc2c1N,IC50,[3],35 µM (active)
CC(C)CCNc1nc(N2CCCC2)c2c(c1C#N)CCN(C)C2,EC50,[4],> 60 µM (not active)
same,EC50,[5],0.1 µM (active)
CCNc1ncc2nc(CCc3ccccc3)c(=O)n(CCOC)c2n1,AC50,Cytochrome P450 3A4,15.8 µM (inconclusive)
COc1ccc(C2=NN(C(=O)c3cccs3)C(c3ccccc3O)C2)cc1 (stereo not drawn),EC50,[4],> 60 µM (not active)
same,EC50,[5],3.01 µM (active)
Cc1cc(C)c(OCCCCN(C)C)c(Br)c1,EC50,[4],> 60 µM (inconclusive)
same,EC50,[5],0.46 µM (active)
O=[N+]([O-])c1ccc2c(c1)Cc1cc(O)ccc1-2,IC50,[3],16.7 µM (active)
O=C(CSc1nnc(C2CC2)n1C1CC1)N1CCN(c2ccc(O)cc2)CC1,IC50,[3],30.2 µM (active)
CCOc1ccccc1/N=N/c1c(C)[nH]n(C(N)=S)c1=O,CC50,[1],33.1 µM (active)
CCN(CC)S(=O)(=O)c1cccc(C(=O)N/N=C/c2ccc(OC)c(O)c2)c1,IC50,[3],76.7 µM (active)
C/C(=N\OCC(=O)Nn1c(=O)[nH]c2ccccc2c1=O)c1cccs1,EC50,[2],> 195 µM (not active)
CCn1nc(C)c(/C=N/NC(=O)c2c[nH]c3ccccc23)c1C,EC50,[2],> 195 µM (not active)
O=C1OC2(CCCCC2)OC(O)=C1/C=N/c1nccs1,EC50,[2],> 195 µM (not active)
